# Target: T1, Glucocorticoid Receptor (GR) (Homo sapiens, UniProt P04150)
# T1 construct: purchased Invitrogen P2893
# T1 sequence (P04150 1-777): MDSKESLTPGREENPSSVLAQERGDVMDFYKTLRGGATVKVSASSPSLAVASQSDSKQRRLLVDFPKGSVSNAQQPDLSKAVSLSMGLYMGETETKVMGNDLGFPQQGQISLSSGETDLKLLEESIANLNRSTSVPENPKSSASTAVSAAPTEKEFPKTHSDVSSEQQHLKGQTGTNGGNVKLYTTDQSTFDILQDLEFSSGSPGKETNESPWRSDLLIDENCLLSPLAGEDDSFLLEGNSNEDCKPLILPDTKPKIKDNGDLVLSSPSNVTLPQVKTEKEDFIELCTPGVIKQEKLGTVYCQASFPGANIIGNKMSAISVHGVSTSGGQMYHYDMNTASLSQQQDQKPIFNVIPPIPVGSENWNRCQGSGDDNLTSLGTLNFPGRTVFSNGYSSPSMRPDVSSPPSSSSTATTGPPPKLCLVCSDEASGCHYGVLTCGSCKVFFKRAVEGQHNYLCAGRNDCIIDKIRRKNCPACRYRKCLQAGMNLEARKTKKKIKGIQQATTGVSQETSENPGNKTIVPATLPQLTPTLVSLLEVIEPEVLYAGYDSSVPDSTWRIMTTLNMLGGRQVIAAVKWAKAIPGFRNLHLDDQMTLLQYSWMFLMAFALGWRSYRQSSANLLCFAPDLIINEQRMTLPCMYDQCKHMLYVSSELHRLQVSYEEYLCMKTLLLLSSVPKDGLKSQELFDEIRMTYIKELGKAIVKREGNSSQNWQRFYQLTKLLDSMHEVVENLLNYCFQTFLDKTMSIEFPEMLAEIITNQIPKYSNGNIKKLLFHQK
# Experiment: GR Fluorescence Polarization Assay (PolarScreen Glucocorticoid Receptor Competitor Assay, Red)
# Conditions: IC50 class ranges, read-out: GR binding
# Procedure: GR Fluorescence Polarization Assay
# Fluorescence polarization assays were carried out using the PolarScreen™ Glucocorticoid Receptor Competitor Assay, Red from Invitrogen (P2893). The assay buffer was prepared according to the manufacturer's protocol and used to dilute the fluorescent glucocorticoid and GR. Compounds were prepared and serial diluted 1:4 in DMSO. Compound, fluorescent glucocorticoid and GR were added in a final volume of 20 μL and incubated overnight at 4° C. Fluorescent polarization was measured on the PerkinElmer Envision®.
row,SMILES,IC50 [nM]
1,"CCn1nc(-c2ccccn2)c2c1N[C@H](C)CS[C@@H]2c1ccc(C#CCO)cc1C (single isomer, unassigned) [M.26, 3-(4-(1-ethyl-7-methyl-3-(pyridin-2-yl)-4,6,7,8-tetrahydro-1H-pyrazolo[3,4-e][1,4]thiazepin-4-yl)-3-methylphenyl)prop-2-yn-1-ol]",1000 to 10000
2,"CCn1nc(-c2ccccn2)c2c1N[C@@H](C)CS[C@@H]2c1ccc(CCC(C)(C)O)cc1C (single isomer, unassigned) [M.37, 4-(4-(1-ethyl-7-methyl-3-(pyridin-2-yl)-4,6,7,8-tetrahydro-1H-pyrazolo[3,4-e][1,4]thiazepin-4-yl)-3-methylphenyl)-2-methylbutan-2-ol]",100 to 1000
3,"Cc1cc(C(=O)Nc2cccnc2C)ccc1[C@H]1SC[C@@H](C)Nc2c1c(-c1ccncn1)nn2C (single isomer, unassigned) [M.60, 4-(1,7-dimethyl-3-(pyrimidin-4-yl)-4,6,7,8-tetrahydro-1H-pyrazolo[3,4-e][1,4]thiazepin-4-yl)-3-methyl-N-(2-methylpyridin-3-yl)benzamide]",1000 to 10000
4,"Cn1nc(-c2ccccn2)c2c1NCCSC2c1ccc(-c2cncc(S(C)(=O)=O)c2)cc1Cl (stereo not shown) [U.1, 4-(2-Chloro-4-(5-(methylsulfonyl)pyridin-3-yl)phenyl)-1-methyl-3-(pyridin-2-yl)-4,6,7,8-tetrahydro-1H-pyrazolo[3,4-e][1,4]thiazepine tris(trifluoroacetate)]",1000 to 10000
5,Cc1ccc(C(=O)Nc2cccnc2C)cc1C1SC(C)(C)CNc2c1c(C1CC1)nn2C (stereo not shown) [H.2],> 10000
6,"CCn1nc(-c2ccccn2)c2c1N[C@H](C)CS[C@@H]2c1ccc(CCC(C)(C)O)cc1C (single isomer, unassigned) [M.38, 4-(4-(1-ethyl-7-methyl-3-(pyridin-2-yl)-4,6,7,8-tetrahydro-1H-pyrazolo[3,4-e][1,4]thiazepin-4-yl)-3-methylphenyl)-2-methylbutan-2-ol]",100 to 1000
7,Cn1nc(-c2ccccn2)c2c1NCCSC2c1ccc(-c2cnn(C3CCCCO3)c2)cc1Cl (stereo not shown) [U.6],100 to 1000
8,Cn1nc(-c2ccccn2)c2c1NCCSC2c1ccc(-c2ccnnc2)cc1Cl (stereo not shown) [U.3],1000 to 10000
9,Cn1nc(-c2ccccn2)c2c1NCCSC2c1ccc(-c2cnccc2C#N)cc1Cl (stereo not shown) [U.10],100 to 1000
10,Cn1nc(-c2ccccn2)c2c1N(CC(=O)O)CCSC2c1ccc(Cl)cc1Cl (stereo not shown),1000 to 10000
11,Cn1nc(-c2ccccn2)c2c1NCCSC2c1ccc(-c2cnn(CCC#N)c2)cc1Cl (stereo not shown) [U.16],100 to 1000
12,Cn1nc(-c2ccccn2)c2c1NCCSC2c1ccc(-c2cnc3nccnc3c2)cc1Cl (stereo not shown) [U.11],1000 to 10000
13,Cc1ncccc1C(=O)N1CCC(C2SCCNc3c2c(-c2ccccn2)nn3C)CC1 (stereo not shown),> 10000
14,CCn1nc(-c2ccccn2)c2c1N[C@@H](C)CS[C@H]2c1ccc(CCC(C)(C)N)cc1C [Q.1],100 to 1000
15,"Cc1cc(CCC(C)(C)O)ccc1[C@H]1SC[C@H](C)Nc2c1c(-c1ccccn1)nn2C (single isomer, unassigned) [M.41, 4-(4-(1,7-dimethyl-3-(pyridin-2-yl)-4,6,7,8-tetrahydro-1H-pyrazolo[3,4-e][1,4]thiazepin-4-yl)-3-methylphenyl)-2-methylbutan-2-ol]",100 to 1000
16,Cn1nc(-c2ccccn2)c2c1NCCSC2c1ccc(-c2cncc(C(=O)N3CCOCC3)c2)cc1Cl (stereo not shown) [U.12],100 to 1000
17,Cn1nc(-c2ccccn2)c2c1NCCSC2c1ccc(-c2cnc(N3CCOCC3)nc2)cc1Cl (stereo not shown) [U.19],1000 to 10000
18,"CCn1nc(-c2ccccn2)c2c1N[C@@H](C)CS[C@@H]2c1ccc(C#CCO)cc1C (single isomer, unassigned) [M.25, 3-(4-(1-ethyl-7-methyl-3-(pyridin-2-yl)-4,6,7,8-tetrahydro-1H-pyrazolo[3,4-e][1,4]thiazepin-4-yl)-3-methylphenyl)prop-2-yn-1-ol]",1000 to 10000
19,"Cc1cc(C#CCCO)ccc1[C@H]1SC[C@H](C)Nc2c1c(-c1ccccn1)nn2C (single isomer, unassigned) [M.53, 4-(4-(1,7-dimethyl-3-(pyridin-2-yl)-4,6,7,8-tetrahydro-1H-pyrazolo[3,4-e][1,4]thiazepin-4-yl)-3-methylphenyl)but-3-yn-1-ol]",100 to 1000
20,Cn1nc(-c2ccccn2)c2c1NCCSC2c1ccc(-c2cnn(CCC(N)=O)c2)cc1Cl (stereo not shown) [U.18],100 to 1000
21,"Cc1cc(Br)ccc1[C@H]1SC[C@@H](C)Nc2c1c(-c1nnco1)nn2C [M.63, 2-(4-(4-bromo-2-methylphenyl)-1,7-dimethyl-4,6,7,8-tetrahydro-1H-pyrazolo[3,4-e][1,4]thiazepin-3-yl)-1,3,4-oxadiazole]",100 to 1000
22,"CCn1nc(-c2ccccn2)c2c1N[C@@H](C)CS[C@@H]2c1ccc(C#CC(C)(C)O)cc1C (single isomer, unassigned) [M.29, 4-(4-(1-ethyl-7-methyl-3-(pyridin-2-yl)-4,6,7,8-tetrahydro-1H-pyrazolo[3,4-e][1,4]thiazepin-4-yl)-3-methylphenyl)-2-methylbut-3-yn-2-ol]",1000 to 10000
23,"CCn1nc(-c2ccccn2)c2c1N[C@H](C)CS[C@@H]2c1ccc(C#CC(C)(C)O)cc1C (single isomer, unassigned) [M.30, 4-(4-(1-ethyl-7-methyl-3-(pyridin-2-yl)-4,6,7,8-tetrahydro-1H-pyrazolo[3,4-e][1,4]thiazepin-4-yl)-3-methylphenyl)-2-methylbut-3-yn-2-ol]",1000 to 10000
24,Cn1nc(-c2ccccn2)c2c1NCCSC2c1ccc(-c2ccncc2C#N)cc1Cl (stereo not shown) [U.9],100 to 1000
25,"Cc1cc(C#CCO)ccc1[C@H]1SC[C@@H](C)Nc2c1c(-c1ccccn1)nn2C (single isomer, unassigned) [M.69, 3-(4-(1,7-dimethyl-3-(pyridin-2-yl)-4,6,7,8-tetrahydro-1H-pyrazolo[3,4-e][1,4]thiazepin-4-yl)-3-methylphenyl)prop-2-yn-1-ol]",100 to 1000

# Second part, the molecule after the results:
row,IC50 [nM],SMILES
1,> 10000,COc1ccccc1C1SCCNc2c1c(C)nn2C (stereo not shown) [D.98]
2,1000 to 10000,Cn1nc(-c2ccccn2)c2c1NCCSC2c1ccc(C(C)(C)O)cc1Cl (stereo not shown)
3,1000 to 10000,Cn1nc(-c2ccc(C(N)=O)cn2)c2c1NCCSC2c1ccc(Cl)cc1Cl (stereo not shown) [I.5]
4,1000 to 10000,"COC(=O)c1ccc(C2SCCNc3c2c(-c2ccccn2)nn3C)cc1 (stereo not shown) [E.2, methyl 4-[1-methyl-3-(2-pyridyl)-4,6,7,8-tetrahydropyrazolo[3,4-e][1,4]thiazepin-4-yl]benzoate]"
5,100 to 1000,Cn1nc(-c2ccc(Cl)c(Cl)c2)c2c1NCCSC2c1ccc(Cl)cc1Cl (stereo not shown) [D.89]
6,100 to 1000,CNC(=O)c1ccc(C2SCCNc3c2c(-c2ccccn2)nn3C)c(Cl)c1 (stereo not shown) [I.2]
7,> 10000,Cc1nn(C)c2c1C(c1cccnc1)SCCN2 (stereo not shown) [D.99]
8,100 to 1000,"COC(=O)c1ccc(C2SC(C)(C)CNc3c2c(C)nn3C)c(C)c1 (stereo not shown) [E.4, methyl 3-methyl-4-(1,3,6,6-tetramethyl-7,8-dihydro-4H-pyrazolo[3,4-e][1,4]thiazepin-4-yl)benzoate]"
9,1000 to 10000,Cn1nc(-c2cccnc2)c2c1NCCSC2c1ccc(Cl)cc1Cl (stereo not shown) [D.86]
10,100 to 1000,Cn1nc(-c2ccc(F)cc2F)c2c1NCCSC2c1ccc(Cl)cc1Cl (stereo not shown) [D.93]
11,> 10000,Cc1nn(C)c2c1C(c1cc[nH]n1)SCCN2 (stereo not shown) [D.102]
12,> 10000,Cc1nn(C)c2c1C(c1ccccn1)SCCN2 (stereo not shown) [D.96]
13,1000 to 10000,COCCn1cc(-c2ccc(C3SCCNc4c3c(-c3ccccn3)nn4C)c(Cl)c2)cn1 (stereo not shown) [U.15]
14,1000 to 10000,COc1cccc(C2SCCNc3c2c(C)nn3C)c1 (stereo not shown) [D.81]
15,1000 to 10000,Cn1nc(-c2ccc(C(C)(C)C)cc2)c2c1NCCSC2c1ccc(Cl)cc1Cl (stereo not shown) [D.88]
16,1000 to 10000,Cc1cccc(-c2nn(C)c3c2C(c2ccc(Cl)cc2C)SCCN3)n1 (stereo not shown)

# Test system: IL-6 in A549 cells stimulated with IL-1β
# Experiment: A549 Cell Assay to Measure Inflammation Markers (inhibition of IL-1β-induced IL-6)
# Type: cell-based
# Conditions: A549 Cell Assay to Measure Inflammation Markers; intrinsic activity, Emax class ranges
# Procedure: A549 Cell Assay to Measure Inflammation Markers
# Further dilution (1:250) of compound was made into assay medium and 50 μL/well diluted drug or DMSO/media control was applied to cells. After a 1 h pre-incubation in a temperature, CO2, and humidity controlled incubator, set to 37° C., 50 μL/well of 4 ng/mL IL-1β diluted in assay media, was applied to cultures. Assay plates, with a final volume of 200 μL/well and final concentrations of 0.1% DMSO and 1 ng/mL IL-1β were returned to incubator for a […] incubation period. Next, plates were spun at 183 g (1000 rpm in Beckman/Coulter Allegra 6KR centrifuge) for 10 min. Cell-free supernatant (150 μL/well) was collected and IL-6 was measured by MSD kit, following protocol of manufacturer, and using MSD SECTOR Imager 6000 instrument. […] Results were represented as IC50 and Emax values.
row,SMILES,A549 Emax
1,"Cc1cc(Cl)ccc1C1SCCNc2c1c(-c1ccccn1)nn2C (single isomer, unassigned) [(4S)-4-(4-chloro-2-methyl-phenyl)-1-methyl-3-(2-pyridyl)-4,6]",B (a compound with Emax>60%)
2,"Cc1cc(Cl)ccc1C1SCC(C)Nc2c1c(-c1ccccn1)nn2C (single isomer, unassigned) [(4S,7S)-4-(4-chloro-2-methylphenyl)-1,7-dimethyl-3-(pyridin-]",D (a compound with Emax<50%)
